Experimental data: patent US5508384A, “Polypeptide derived from a popamine receptor, and compositions and methods thereof” (New York University, priority 1993, dated 1996)

Experiments:
[1] = tested on: dopamine receptor sites in the basal ganglia; settings: cited from earlier work
[2] = tested on: norepinephrine receptor sites in thalamic and hypothalamic areas; settings: cited from earlier work
[3] = basal ganglia, thalamic and hypothalamic areas; cited from earlier work
[4] = in vivo; cited from earlier work
[5] = Radioligand binding assay, polypeptide in DMPC small unilamellar vesicles; settings: lipid:peptide 147:1, 1 h at 25° C., pH 7.4, FIG. 7
Method: Preparation of Small Unilamellar Visicles. Polypeptides were incorporated into DMPC vesicles at lipid:peptide ratio of 147:1 in the followinq manner: polypept ide in HFIP was mixed with dimyrystyroyl-phosphatidylcholine (synthetic) (DMPC) in dry chloroform and dried to a film with a stream of dry nitrogen at 0° C. This residue was then dried further overnight under a vacuum (1×10^-2 torr). The residue was then hydrated in […] and sonicated for a 30-min period under nitrogen at 0° C. The suspension was sedimented for a 30-min at 100,000 q (4° C.) to remove any residual titanium particles and large unilamellar vesicles The supernatant was removed and sedimented once more at 159,000 g for a 45 min period at 4° C. The supernatant in the lower portion was used immediately.
Radioligand Bining Assays. A 0.50 mL volume of 1.00 nM [^3 H]-spiperone(New England specific activity […]) was added to assay tubes which contained 0.5 mL lipid/peptide supernatant, 0.5 mL Tris buffer pH 7.4 and 0.5 mL of cold drug for a final volume of 2.0 mL. […]
Filters were then washed with 6.0 mL of cold 50 mM Tris-HCl buffer, pH 7.40. For detection of radioactivity, filters were placed in 2.0 mL of scintillation fluid (Scintiverse) and incubated for 24 h. The activity of the tritium was determined in a Beckman LS 7500 liquid scintillation counter. […]

[6] = Circular dichroism, helical content; format: physicochemical; settings: solvent system in which most membrane polypeptides are strongly helical; FIG. 6
Method: Circular Dichroism (CD). Spectra were recorded on an Aviv model 60 DS circular dichroism spectrophotometer at room temperature with a 1 cm by 1 mm cell. The amplitude of the CD signal was calibrated using 10.1% (w/v) solution of d (+)-camphorsulfonic acid (Aldrich) and the wavelength of the CD signal was set using standard absorbance peaks of benzene vapor. Polypeptide ccncentrations were determined in a Cary 210 UV spectrophotomer wwith the absorbance measured at 280 nm. Helical content was estimated using CD signal intensity according to the method of Chen. et al Biochem. 13:[…] (1974). This calculation compares the experimental ellipticity at. 222 nm ( [θ]222) ( [θ]) to a theoretical [θ]222. The theoretical [θ]222 is empirically adjusted to account for differences in polypeptide length and is based on experimental CD data from a series of proteins with known crystal structures. Since both the curve shape and magnitude are important in analysis of a CD spectrum for secondary structure contributions, we also considered qualitatively the contributions to the spectral shapes from different secondary structures using reference curves for poly (L-lysine).

| Molecule | Blocks DA [1] | Blocks NE [2] | also measured |
| --- | --- | --- | --- |
| CN(C)CCCN1c2ccccc2Sc2ccc(Cl)cc21 [Chlorpromazine] | Yes++ | Yes++ | – |
| O=C(CCCN1CCC(O)(c2ccc(Cl)cc2)CC1)c1ccc(F)cc1 [Haloperidol] | Yes++++ | Yes+ | – |
| COC(=O)[C@H]1[C@H]2C[C@@H]3c4[nH]c5cc(OC)ccc5c4CCN3C[C@H]2C[C@@H](OC(=O)c2cc(OC)c(OC)c(OC)c2)[C@@H]1OC [Reserpine] | – | – | concentrations of norepinephrine and dopamine [3]: reduces |
| CN1CCN(CC/C=C2/c3ccccc3Sc3ccc(S(=O)(=O)N(C)C)cc32)CC1 [Thiothixene] | Yes+ | Yes+++ | – |
| CN1CCN(C2=Nc3cc(Cl)ccc3Nc3ccccc32)CC1 [clozapine] | – | – | motor side effects [4]: apparently capable of producing less motor side effects |
| Polypeptide III: consensus peptide of the dopamine D2 receptor transmembrane domains I-VII (DYAIFVLYASAWLSFNCPFIVTLNIK) | – | – | binding of [^3 H]-spiperone (receptor-like functional binding) [5]: binding to the neuroleptic agent, spiperone, into a stereoselective, concentration-dependent manner; helical structure from CD spectrum [6]: only partially helical |
